{"source": "patent US11542515B2", "about": "“Methods and compositions for increasing efficiency of targeted gene modification using oligonucleotide-mediated gene repair” (CIBUS US LLC, priority 2016, dated 2023)", "molecules": {"B1": {"name": "GRON (SEQ ID NO: 79): Cy3/idC GRON targeting the rice accase gene, Example 21 (nucleic acid)", "chain": "CTGACCTGAACTTGATCTCAATTAACCCTTGCGGTTCCAGAACATTGCCTTTTGCAGTCCTCTCAGCATAGCACTCAATGCGGTCTGGGTTTATCTTGCTTCCAACGACAACCCAAGCCCCTCCTCGTAGCTCTGCAGCCATGGGAATGTAGACAAAGGCAGGCTGATTGTATGTCCTAAGGTTCTCAACAATAGTCGAGCC", "modifications": "Cy3 label and idC cap; 5′ CY3/ 3′ 3′DMT dC CPG"}}, "key": {"flax plants": {"test_system": "flax plants", "experiment": "Glyphosate spray test of regenerated flax plants in the greenhouse", "assay_type": "in vivo, Linum usitatissimum", "details": "10.5 or 21.0 mM spray, 6 days after treatment", "procedure": "(§1) Glyphosate tolerance of calli and regenerated plants was assessed in vitro and in the greenhouse, respectively. Individual calli were cloned by cutting and culturing smaller pieces in fresh regeneration medium to increase callus mass. Calli derived from wild type leaf protoplasts were used as negative control. Calli derived from subcultures of individual callus lines were then pooled and broken up into 0.5-1 mm pieces by blending in liquid MS medium (4.33 g/L MS salts, 3% sucrose and 0.1% Morel and Wetmore vitamins) and 0.25 ml of settled callus pieces was inoculated on regeneration medium containing 0, 0.125, 0.25, 0.5, 1.0 or 2.0 mM glyphosate. Treatments were performed in triplicate, and the experiments were repeated three times. Prior to spray tests, regenerated plants were subjected to a hardening period in a growth chamber (Conviron, Winnipeg, MB) under a 16-h photoperiod with day and night temperatures 21° C. and 18° C. respectively. Hardened plants were transferred to the greenhouse for glyphosate treatment. Wild type control and EPSPS edited plants were sprayed with 10.5 mM or 21.0 mM glyphosate (Roundup Pro, Monsanto). Treatment rates were normalized to a 75.7 ai/A (active ingredient per acre) spray volume to replicate field conditions. […] Plants were evaluated and photographed 6 days after the glyphosate treatment to determine herbicide tolerance. […]"}, "flax calli": {"test_system": "flax calli", "experiment": "Glyphosate tolerance of flax calli (fresh weight)", "assay_type": "cell-based, Linum usitatissimum", "details": "edited callus line Y23 / A23, all glyphosate concentrations tested, p<0.01", "procedure": "as §1"}, "[1]": {"test_system": "blue fluorescent protein (BFP) gene", "experiment": "BFP to GFP conversion by GRON, with or without zeocin/phleomycin, in BFP transgenic protoplasts (flow cytometry)", "assay_type": "cell-based, Arabidopsis thaliana", "details": "250 and 1000 μg/ml, 90 min before GRON", "from_the_text": "Sommer et al., (Mol Biotechnol. 33:115-22, 2006) describes a reporter system for the detection of in vivo gene conversion that relies upon a single nucleotide change to convert between blue and green fluorescence in green fluorescent protein (GFP) variants. This reporter system was adapted for use in the following experiments using Arabidopsis thaliana as a model species in order to assess efficiency of GRON mediated conversion.\nIn short, for this and the subsequent examples an Arabidopsis thaliana line with multiple copies of a blue fluorescent protein gene was created by methods known to those skilled in the art (see, e.g., Clough and Brent, 1998). […]\nThe purpose of this series of experiments is to compare the conversion efficiencies of the phosphothioate (PS) labeled GRONs with 3PS moieties at each end of the GRON to 2′-O-Me or “2OMe” in the presence and absence of a member of the bleomycin family, Zeocin™ to induce DNA breaks. […] GRONs were delivered into Arabidopsis thaliana BFP protoplasts by PEG treatment and BFP to GFP conversion was determined at 24 h post treatment by cytometry. […]\nSeventy-two h after transfection, cells were analyzed by cytometry using the Attune® Acoustic Focusing cytometer (Applied Biosystems®) with excitation and detection of emission as appropriate for GFP. […]"}, "[2]": {"test_system": "blue fluorescent protein (BFP) gene", "experiment": "BFP to GFP conversion by GRON, with or without zeocin/phleomycin, in BFP transgenic protoplasts (flow cytometry)", "assay_type": "cell-based, Arabidopsis thaliana"}, "bfp gene": {"test_system": "bfp gene", "experiment": "BFP to GFP conversion by CRISPR plasmid plus GRON in BFP transgenic protoplasts (flow cytometry)", "assay_type": "cell-based, Arabidopsis thaliana", "details": "72 h", "procedure": "BFP transgenic Arabidopsis thaliana protoplasts derived from induced root tissue were seeded on a flat-bottom 96-well plate, at 250,000 cells per well at a cell density of 1×10^7 cells/ml. The CRISPR encoded plasmids contain the mannopine synthase (MAS) promoter driving the Cas9 coding sequence with an rbcSE9 terminator and the Arabidopsis U6 promoter driving the sgRNA with a poly-T10 terminator. The CRISPR plasmids along with GRON were introduced into protoplasts by PEG mediated delivery at a final concentration of 0.05 μg/μl and 0.16 μM respectively. Protoplasts were incubated in the dark at 23° C. for 72 hours, and then they were analyzed by flow cytometer in order to determine the percentage of GFP positive protoplasts within a given treatment.\nThe CRISPR consists of two components: the plant codon-optimized Streptococcus pyogenes Cas9 (SpCas9) and sgRNA both of which were expressed from the same plasmid. The sgRNA is a fusion of CRISPR RNA (crRNA) and trans-activating crRNA (tracrRNA). The crRNA region contains the spacer sequence used to guide the Cas9 nuclease to the BFP target gene (FIG. 3). 201-mer GRONs targeting BFP with or without wobble bases were used to determine their effect on the rate of BFP to GFP conversion.\nBFP transgenic Arabidopsis thaliana protoplasts derived from induced root tissue were seeded on a flat-bottom 96-well plate, at 250,000 cells per well at a cell density of 1×10^7 cells/ml. […] Protoplasts were incubated in the dark at 23° C. for 72 hours, and then they were analyzed by flow cytometer in order to determine the percentage of GFP positive protoplasts within a given treatment. […]\nBFP transgenic Arabidopsis thaliana protoplasts derived from induced root tissue were seeded on a flat-bottom 96-well plate, at 250,000 cells per well at a cell density of 1×10^7 cells/ml. […] Protoplasts were incubated in the dark at 23° C. for 72 hours, and then they were analyzed by flow cytometry in order to determine the percentage of GFP positive protoplasts within a given treatment. […]"}, "accase gene": {"test_system": "accase gene", "experiment": "ACCase conversion in rice protoplasts (NGS)", "assay_type": "cell-based, Oryza sativa"}}, "note": "Entries after “also recorded” stand apart in the source; their conditions may differ. In the oligonucleotide strings, read from the 5' end, every base follows the letter of its sugar. An asterisk marks phosphorothioate; unmarked linkages are phosphodiester. Other units and linkages are bracketed, terminal groups are in braces. A string of capitals states the bases alone. d = 2'-deoxy (DNA)", "data": [{"molecule": "O=C(O)CNCP(=O)(O)O", "note": "[glyphosate]", "values": [{"measurement": "phenotype of wild type plants", "setting": "flax plants", "result": "wilted and necrotic phenotype typical of glyphosate toxicity"}, {"measurement": "phenotype of plants with the edited EPSPS gene", "setting": "flax plants; Y23 / A23 plants", "result": "minimal phenotypic change"}, {"measurement": "fresh weight of calli with T97I and P101A edits versus wild type calli", "setting": "flax calli", "result": "significantly higher"}]}, {"molecule": "Cc1c(N)nc([C@H](CC(N)=O)NC[C@H](N)C(N)=O)nc1C(=O)N[C@H](C(=O)N[C@H](C)[C@@H](O)[C@H](C)C(=O)N[C@H](C(=O)NCCC1=N[C@@H](c2nc(C(=O)NCCCCN=C(N)N)cs2)CS1)[C@@H](C)O)[C@@H](O[C@@H]1O[C@@H](CO)[C@@H](O)[C@H](O)[C@@H]1O[C@H]1O[C@H](CO)[C@@H](O)[C@H](OC(N)=O)[C@@H]1O)c1cnc[nH]1", "note": "[zeocin]", "values": [{"measurement": "effect of antibiotic pre-treatment on BFP to GFP gene editing", "setting": "[1]", "result": "increase in BFP to GFP gene editing"}, {"measurement": "effect of zeocin on BFP to GFP conversion", "setting": "[2]; zeocin 1 mg/ml, 90 min on ice prior to PEG treatment with GRON", "result": "increased BFP to GFP conversion rates"}]}, {"molecule": "BFP/41/3PS: BFP GRON with three adjacent PS modifications at each end (sense dG*dC*dT*dGdAdAdGdCdAdCdTdGdCdAdCdGdCdCdGdTdAdGdGdTdAdAdAdCdGdTdGdGdTdCdAdCdGdAdGdGdGdT*dG*dG*dG)", "values": [{"measurement": "BFP to GFP conversion / editing, comparison in words", "setting": "bfp gene", "result": "more BFP to GFP precise scarless edits"}]}, {"molecule": "CG2: BFP antisense 41 nb 3PS modified (antisense dG*dC*dT*dGdAdAdGdCdAdCdTdGdCdAdCdGdCdCdGdTdAdGdGdTdGdAdAdGdGdTdGdGdTdCdAdCdGdA*dG*dG*dG)", "values": [{"measurement": "BFP to GFP conversion / editing, comparison in words", "setting": "bfp gene", "result": "more efficacious"}]}, {"molecule": "CG3: BFP sense 41 nb 3PS modified (sense CGCTCGTGACCACCTTCACCTACGGCGTGCAGTGCTTCAGC; linkages s3 o34 s3 (s phosphorothioate, o phosphodiester), sugars by position and methylation of C not given here)", "values": [{"measurement": "BFP to GFP conversion / editing, comparison in words", "setting": "bfp gene", "result": "no statistical difference"}]}, {"molecule": "phleomycin [reference compound]", "values": [{"measurement": "effect of antibiotic pre-treatment on BFP to GFP gene editing", "setting": "[1]", "result": "increase in BFP to GFP gene editing; also recorded: dose-dependent increase in GFP positive cells"}, {"measurement": "number of GFP positive cells compared to the BFP/41/NT control", "setting": "[2]; phleomycin 10 μg/mL, GRON BFP/41, 24 h", "result": "no improvement"}, {"measurement": "BFP to GFP conversion frequency", "setting": "[2]; phleomycin 1000 μg/mL pre-treatment 90 min, GRON BFP/41, 24 h", "result": 0.14, "unit": "%"}]}, {"molecule": "B1", "values": [{"measurement": "ACCase conversion", "setting": "accase gene; CRISPR-Cas plasmid plus GRON, 120 h", "result": 0.026, "unit": "%"}, {"measurement": "ACCase conversion", "setting": "accase gene; GRON only, no CRISPR-Cas, 120 hours", "result": 0.002, "unit": "%"}]}]}
